What is called IC50 is the concentration that inhibits the measured activity by half.

The target of this experiment is recombinant human MMP-12 catalytic domain (Homo sapiens (Human), UniProt P39900). The experiment in a line: MMP-12 inhibitory assay (fluorogenic substrate cleavage). It is filed as biochemical. The conditions noted are these: readout at 30 minutes, 37° C., pH 7.5; Table 1; read-out: MMP-12 IC50. As to the method: The inhibitory effect of compounds on the rate of cleaving fluorogenic MMP substrate (Enzo, BML-P128) by recombinant human MMP-12 catalytic domain (Enzo, BML-SE138) was carried out by methods known in the art. Briefly, to each well of a 96-well black opaque plate, all the reagents were sequentially added by pipetting, and the final reaction contained 4 nM of recombinant human MMP-12 catalytic domain, […] of fluorogenic MMP substrate, and various concentrations (0.15 nM to 10,000 nM) of tested compound dilutions in HEPES buffer (pH 7.5) containing 10 mM of CaCl2, 0.01% Brij® 35 (polyoxyethylene (23) lauryl ether), and 0.1 mg/ml of BSA.
recombinant human MMP-12 catalytic domain, sequence (P39900 106-268): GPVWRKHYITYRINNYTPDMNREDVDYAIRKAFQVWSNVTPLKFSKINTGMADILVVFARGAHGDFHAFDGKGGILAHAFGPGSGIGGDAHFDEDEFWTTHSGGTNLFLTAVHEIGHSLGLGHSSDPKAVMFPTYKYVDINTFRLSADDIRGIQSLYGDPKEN
The enzyme and compounds were pre-incubated on a shaker to mix in wells. After an hour of mixing, fluorogenic substrate was added to each well. Reaction without enzyme was used as a blank control in the plate. The plate was then fed into a plate reader to measure fluorescence intensity at Excitation/Emission wavelengths of 340 nm/440 nm every 10 mins for at least 1 hour at 37° C. The IC50 of each compound in MMP-12 inhibition was determined by using a readout obtained at time point 30 minutes.
On to `O=C1NC(=O)C(c2ccncc2Sc2ccc(OCc3cccc(O)c3)cc2)N1` (stereo not shown) [PC-15], for which the concentration for half-maximal inhibition (IC50) is below 10 nM.

Regarding `Cc1cc(COc2ccc(Sc3cnccc3C3NC(=O)NC3=O)cc2)ccn1` (stereo not shown) [PC-18], the half-maximal inhibitory concentration (IC50) was below 10 nM.

On to `O=C1NC(=O)C(c2cnccc2Sc2ccc(OCc3ccnc(C(=O)O)c3)cc2)N1` (stereo not shown) [PC-20], for which the concentration for half-maximal inhibition (IC50) is above 1000 nM.

With `O=C1NC(=O)C(c2cnccc2Sc2ccc(OCc3cncc(C(=O)O)c3)cc2)N1` (stereo not shown) [PC-21], the IC50 is above 1000 nM.

As to `O=C1NC(=O)C(c2ccncc2Sc2ccc(OCc3cncc(C(=O)O)c3)cc2)N1` (stereo not shown) [PC-24], the concentration for half-maximal inhibition (IC50) is above 1000 nM.

`NC(=O)c1ccncc1COc1ccc(Sc2ccncc2C2NC(=O)NC2=O)cc1` (stereo not shown) [PC-38]: the IC50 is above 1000 nM.

With `O=C1NC(=O)C(c2cnccc2Sc2ccc(OCc3ccnc(CO)c3)cc2)N1` (stereo not shown) [PC-40], the concentration for half-maximal inhibition (IC50) was below 10 nM.

Regarding `Cc1cccc(OCc2ccc(Sc3ccncc3C3NC(=O)NC3=O)cc2)c1` (stereo not shown) [PC-43], the IC50 was above 1000 nM.

Regarding `Cc1cc(COc2ccc(Sc3ccncc3C3(C)C(=O)N(C)C(=O)N3C)cc2)ccn1` (stereo not shown) [PC-46], the concentration for half-maximal inhibition (IC50) was above 1000 nM.

Consider `O=C1NC(=O)C(c2ccncc2Sc2ccc(OCc3cncc(CO)c3)cc2)N1` (stereo not shown) [PC-47], for which the concentration for half-maximal inhibition (IC50) was above 1000 nM.

For `Cc1cc(COc2ccc(Sc3ccncc3C3C(=O)N(C)C(=O)N3C)cc2)ccn1` (stereo not shown) [PC-54], the IC50 is above 1000 nM.

For `NC(=O)c1cc(COc2ccc(Sc3cnccc3C3NC(=O)NC3=O)cc2)ccn1` (stereo not shown) [PC-59], the IC50 was 100 to 1000 nM.

Consider `CCC1(c2cnccc2Sc2ccc(OCc3ccnc(C)c3)cc2)NC(=O)NC1=O` (stereo not shown) [PC-63], for which the IC50 is below 10 nM.

As to `CCC1(c2ccncc2Sc2ccc(OCc3ccnc(C)c3)cc2)NC(=O)NC1=O` (stereo not shown) [PC-64], the IC50 is below 10 nM.

Consider `O=C1NC(=O)C(c2sccc2Sc2ccc(OCc3ccc(CO)cc3)cc2)N1` (stereo not shown) [TC6], for which the IC50 is below 10 nM.

For the compound `O=C1NC(=O)C(c2sccc2Sc2ccc(OCc3cccc(O)c3)cc2)N1` (stereo not shown) [TC7], the IC50 is below 10 nM.
